Assay [1] deals with T1, Prolyl endopeptidase (Sus scrofa, UniProt P23687). The assay is described as follows: In vitro inhibitory activity against prolyl oligopeptidase (POP) from pig brain; value ranges from (44-110).
Assay [2] addresses T1, Prolyl endopeptidase. Nature of the assay: In vitro inhibitory activity against prolyl oligopeptidase (POP) from pig brain; value ranges from (72-92).
Assay [3] has as its target T1, Prolyl endopeptidase. The assay is described as follows: In vitro inhibitory activity against prolyl oligopeptidase (POP) from pig brain; value ranges from (38-110).
For assay [4], the target named is T1, Prolyl endopeptidase.
In assay [5] the target is T1, Prolyl endopeptidase. Nature of the assay: In vitro inhibitory activity against prolyl oligopeptidase (POP) from pig brain; value ranges from (59 - 100).
For assay [6], the target named is T1, Prolyl endopeptidase. Nature of the assay: In vitro inhibitory activity against prolyl oligopeptidase (POP) from pig brain; value ranges from (7800-54000).

The text below walks through data of ChEMBL document CHEMBL1135617, “Dicarboxylic acid bis(L-prolyl-pyrrolidine) amides as prolyl oligopeptidase inhibitors” (J Med Chem, 2002).

T1 sequence (P23687 whole entry): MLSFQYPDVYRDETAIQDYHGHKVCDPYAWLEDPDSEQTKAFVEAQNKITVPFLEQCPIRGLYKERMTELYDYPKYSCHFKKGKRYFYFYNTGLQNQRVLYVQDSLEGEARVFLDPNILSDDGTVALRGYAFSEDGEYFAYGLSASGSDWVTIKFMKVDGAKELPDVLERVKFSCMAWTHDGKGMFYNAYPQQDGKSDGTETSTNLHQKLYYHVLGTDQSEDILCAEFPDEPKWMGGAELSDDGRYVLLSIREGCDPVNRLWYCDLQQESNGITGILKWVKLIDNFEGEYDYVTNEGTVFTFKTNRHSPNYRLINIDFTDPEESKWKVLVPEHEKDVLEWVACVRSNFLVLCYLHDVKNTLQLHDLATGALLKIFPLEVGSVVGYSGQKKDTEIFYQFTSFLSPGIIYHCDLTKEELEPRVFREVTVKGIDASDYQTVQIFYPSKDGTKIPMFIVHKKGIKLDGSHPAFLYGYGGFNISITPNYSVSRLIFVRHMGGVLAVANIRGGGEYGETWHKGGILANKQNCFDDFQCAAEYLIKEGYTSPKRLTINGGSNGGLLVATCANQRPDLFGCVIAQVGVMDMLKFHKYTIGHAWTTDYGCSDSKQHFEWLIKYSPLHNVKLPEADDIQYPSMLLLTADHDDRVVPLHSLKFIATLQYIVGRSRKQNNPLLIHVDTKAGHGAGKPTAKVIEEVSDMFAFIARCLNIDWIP

As to `O=C(C1CCCN1C(=O)CCCCC(=O)N1CCC[C@H]1C(=O)N1CCCC1)N1CCCC1` (stereo partly specified), at Prolyl endopeptidase [1], the half-inhibitory concentration (IC50) (commonly the concentration that gives 50% inhibition) turned out to be 68 nM.

Consider `O=C(C1CCCN1C(=O)c1ccc(C(=O)N2CCC[C@H]2C(=O)N2CCCC2)cc1)N1CCCC1` (stereo partly specified), for which the IC50 at Prolyl endopeptidase [2] stood at 81 nM.

`O=C([C@@H]1CCCN1C(=O)c1ccccc1)N1CCCC1`: the midpoint of inhibition against Prolyl endopeptidase [3], the IC50, lay at 66 nM. With `O=C(CO)[C@@H]1CCCN1C(=O)[C@@H]1CCCN1C(=O)c1cccc(C(=O)N2CCCC2C(=O)N2CCCC2)c1` (stereo partly specified), at Prolyl endopeptidase [4], the IC50 was determined as 0.39 nM.

Turning to `O=C(C1CCCN1C(=O)CCC(=O)N1CCC[C@H]1C(=O)N1CCCC1)N1CCCC1` (stereo partly specified), on Prolyl endopeptidase [5], the half-inhibitory concentration (IC50) was determined as 77 nM. Regarding `O=C(C1CCCN1C(=O)c1ccccc1C(=O)N1CCC[C@H]1C(=O)N1CCCC1)N1CCCC1` (stereo partly specified), the half-maximal inhibitory concentration (IC50) at Prolyl endopeptidase [6] came to 21000 nM.
